The source of these data is PubChem BioAssay (NCI).

Among the test systems are HCT-116 colon; OVCAR-4 ovarian; SF-295 CNS; PC-3 prostate; MCF7 breast; SK-MEL-5 melanoma; BT-549 breast; SK-MEL-2 melanoma; SNB-19 CNS; 786-0 renal.
Assay in all cases: NCI anticancer screen, dose series, 48 h

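The compound was tested at five concentrations on cells cultured in 96-well plates, with a 48-hour exposure period. GI50: concentration for 50% inhibition of growth. TGI: total growth inhibition.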

Regarding `COC(=O)c1ccccc1/C=C1/Cc2ccccc2C1=O`, the TGI is 62.8 µM in the assay with HCT-116 colon; above 100 µM in the assay on OVCAR-4 ovarian; above 100 µM with SF-295 CNS; above 100 µM in the assay with PC-3 prostate; above 100 µM in the assay with MCF7 breast; 62.8 µM in the assay with SK-MEL-5 melanoma.

On to `O=C1CCSSCCC(=O)NCCN1`, for which the TGI in the assay on BT-549 breast, in the assay with HCT-116 colon, with OVCAR-4 ovarian, with SF-295 CNS, with SK-MEL-2 melanoma and in the assay with SNB-19 CNS was above 100 µM each time. Further, the TGI in the assay on PC-3 prostate, in the assay with SK-MEL-5 melanoma and in the assay on 786-0 renal was above 100 µM in each case.

For `CC(C)=C[C@@H]1C[C@H](n2cc(C)c(=O)[nH]c2=O)ON1CCO`, the TGI in the assay with HCT-116 colon, in the assay on OVCAR-4 ovarian, in the assay with SF-295 CNS, in the assay on SK-MEL-2 melanoma, in the assay with SNB-19 CNS and with PC-3 prostate was above 100 µM in each case. The TGI in the assay on MCF7 breast, in the assay with SK-MEL-5 melanoma and in the assay with 786-0 renal was above 100 µM in each case.

Take `COc1ccc(CC(CO)NC(=O)OCc2ccccc2)cc1Oc1ccc(CC(CO)NC(=O)OCc2ccccc2)cc1` (stereo not drawn): the TGI in the assay on BT-549 breast is 32.3 µM; in the assay on HCT-116 colon it was 32.3 µM; with OVCAR-4 ovarian, above 100 µM; in the assay with SF-295 CNS, 24.6 µM; in the assay on SK-MEL-2 melanoma, 32.4 µM; with SNB-19 CNS, 51.8 µM. In addition, the TGI was 27.1 µM in the assay with PC-3 prostate and above 100 µM in the assay on SK-MEL-5 melanoma.

Turning to `COc1cc2c(cc1OC)C1c3ccccc3CCN1CC2` (stereo not drawn), the TGI with HCT-116 colon, with OVCAR-4 ovarian, in the assay with SF-295 CNS, with SK-MEL-2 melanoma, in the assay on SNB-19 CNS and with PC-3 prostate was above 100 µM in each case. For the same compound, the TGI with MCF7 breast, in the assay with SK-MEL-5 melanoma and with 786-0 renal was above 100 µM in each case.

Consider `CCOP(=O)(OCC)C1C(CO)OC(n2ccc(=O)[nH]c2=O)C1O` (stereo not drawn), for which the TGI in the assay on BT-549 breast, in the assay with HCT-116 colon, in the assay on OVCAR-4 ovarian, in the assay with SF-295 CNS, in the assay with SK-MEL-2 melanoma and with SNB-19 CNS was above 100 µM each time. Also, the TGI in the assay with PC-3 prostate, with SK-MEL-5 melanoma and in the assay on 786-0 renal was above 100 µM in each case.

Regarding `CN(C)C(CN)CC1=C(CC(CN)N(C)C)CCC1` (stereo not drawn), the TGI in the assay with HCT-116 colon, with OVCAR-4 ovarian, in the assay on SF-295 CNS, with SK-MEL-2 melanoma, with SNB-19 CNS and in the assay with MCF7 breast was above 100 µM each time. In the assay on SK-MEL-5 melanoma, this compound registered a TGI above 100 µM.

With `COc1ccc(/C(=N/O)c2ccccc2-c2nc3ccccc3c(=O)n2-c2ccc(S(=O)(=O)Nc3ncccn3)cc2)cc1C`, the TGI in the assay with BT-549 breast is 31.3 µM; in the assay on HCT-116 colon, 22.1 µM; in the assay on OVCAR-4 ovarian, above 31.6 µM; in the assay on SF-295 CNS, 27.9 µM; in the assay with SNB-19 CNS it was above 31.6 µM; with PC-3 prostate, above 31.6 µM. Further, the values for the TGI in the assay with MCF7 breast and in the assay on SK-MEL-5 melanoma were 22.2 µM and 25.4 µM, respectively.

Regarding `O=C(NC(Cc1c[nH]c2ccccc12)C(=O)O)/C(=C/c1ccccc1O)NC(=O)c1ccccc1` (stereo not drawn), the TGI with BT-549 breast is 52.5 µM; in the assay on HCT-116 colon, above 100 µM; with OVCAR-4 ovarian, above 100 µM; with SF-295 CNS, 37 µM; with SNB-19 CNS, above 100 µM; in the assay on MCF7 breast it was 24.9 µM. For the same compound, the figures for the TGI in the assay with SK-MEL-5 melanoma and with 786-0 renal were above 100 µM and 46.9 µM, respectively.

With `COc1cc(/C=C/C(=O)O)ccc1C(=O)O/C=C/c1ccccc1`, the TGI in the assay with HCT-116 colon, in the assay on OVCAR-4 ovarian, with SF-295 CNS, in the assay on SK-MEL-2 melanoma, in the assay with SNB-19 CNS and in the assay on MCF7 breast was above 100 µM in each case. The TGI with SK-MEL-5 melanoma was above 100 µM.

Take `O=C(CP(=O)(O)O)c1cccs1`: the TGI in the assay on HCT-116 colon, with SF-295 CNS, in the assay on SK-MEL-2 melanoma, in the assay with SNB-19 CNS, in the assay on SK-MEL-5 melanoma and in the assay with 786-0 renal was above 100 µM each time.

Take `CSCCC(NCc1c(O)ccc2c(-c3ccccc3)cc(=O)oc12)C(=O)O` (stereo not drawn): the TGI in the assay with HCT-116 colon, in the assay with OVCAR-4 ovarian, in the assay on SF-295 CNS, with SK-MEL-2 melanoma, in the assay on SNB-19 CNS and in the assay with PC-3 prostate was above 100 µM throughout. Besides, the TGI with MCF7 breast, with SK-MEL-5 melanoma and in the assay on 786-0 renal was above 100 µM in each case.

Take `Oc1ccc(-c2nnc3sc(-c4ccc(F)cc4)nn23)cc1`: the GI50 is above 100 µM in the assay on OVCAR-4 ovarian; 18.1 µM in the assay with SF-295 CNS; above 100 µM in the assay on SK-MEL-2 melanoma; 21.3 µM in the assay with SNB-19 CNS; above 100 µM in the assay with PC-3 prostate; 59.7 µM in the assay with MCF7 breast. For the same compound, the GI50 in the assay with SK-MEL-5 melanoma was 70.4 µM. For the same compound, the TGI in the assay with OVCAR-4 ovarian is above 100 µM; in the assay with SF-295 CNS, 59.9 µM; in the assay with SK-MEL-2 melanoma, above 100 µM; with SNB-19 CNS it was above 100 µM; in the assay with PC-3 prostate, above 100 µM; in the assay on MCF7 breast, above 100 µM. Moreover, in the assay with SK-MEL-5 melanoma, the TGI was above 100 µM.

As for `O=[N+]([O-])C(=C(N1CCCCC1)N1CCCCC1)/C(Cl)=C(\Cl)Br`, the TGI in the assay on BT-549 breast was above 100 µM; in the assay on HCT-116 colon, 41.7 µM; in the assay on OVCAR-4 ovarian it was 66.5 µM; with SF-295 CNS it was above 100 µM; in the assay with SNB-19 CNS it was 87.1 µM; in the assay on PC-3 prostate, 60.3 µM. The TGI is 88.9 µM in the assay on MCF7 breast, 46 µM with SK-MEL-5 melanoma and 67.8 µM in the assay on 786-0 renal.

On to `Cc1nn(C(=O)Cc2ccccc2)c2c1C(c1ccccc1O)SC(N)=N2` (stereo not drawn), for which the TGI in the assay with BT-549 breast, with HCT-116 colon, in the assay on SF-295 CNS, in the assay on SNB-19 CNS, in the assay with PC-3 prostate and with MCF7 breast was above 100 µM throughout. In addition, the TGI in the assay with SK-MEL-5 melanoma and in the assay on 786-0 renal was above 100 µM throughout.

Consider `COc1cc(/C=C2\C(=O)N(C(=O)Cc3ccccc3)N=C2C)ccc1O`, for which the TGI in the assay on HCT-116 colon, in the assay on OVCAR-4 ovarian, in the assay with SF-295 CNS, in the assay on SK-MEL-2 melanoma, with SNB-19 CNS and with SK-MEL-5 melanoma was above 100 µM each time. The TGI in the assay with 786-0 renal was above 100 µM.
